This is an account of results in ChEMBL document CHEMBL4725248, “Machine Learning on DNA-Encoded Libraries: A New Paradigm for Hit Finding” (J Med Chem, 2020).

In test [1] the target is T1, Bifunctional epoxide hydrolase 2 (Homo sapiens, UniProt P34913).
T1 sequence (P34913 whole entry): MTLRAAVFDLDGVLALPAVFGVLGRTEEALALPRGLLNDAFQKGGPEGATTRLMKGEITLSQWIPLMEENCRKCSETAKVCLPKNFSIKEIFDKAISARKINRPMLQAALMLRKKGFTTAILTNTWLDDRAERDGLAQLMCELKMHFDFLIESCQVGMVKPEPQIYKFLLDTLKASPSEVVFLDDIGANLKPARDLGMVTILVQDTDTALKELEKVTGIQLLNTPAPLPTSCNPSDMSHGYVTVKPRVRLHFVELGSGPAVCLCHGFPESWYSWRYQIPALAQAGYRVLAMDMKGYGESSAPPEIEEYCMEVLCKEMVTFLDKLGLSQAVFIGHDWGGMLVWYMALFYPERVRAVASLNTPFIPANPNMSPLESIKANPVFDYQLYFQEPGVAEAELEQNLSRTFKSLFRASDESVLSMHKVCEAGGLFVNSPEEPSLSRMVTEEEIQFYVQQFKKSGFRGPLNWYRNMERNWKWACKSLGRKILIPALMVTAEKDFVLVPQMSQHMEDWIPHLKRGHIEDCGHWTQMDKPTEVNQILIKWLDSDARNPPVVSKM
The experiment in a line: Inhibition of His-tagged human recombinant soluble epoxide hydrolase pre-incubated for 15 mins before Epoxy-fluor7 substrate addition and measured after 20 mins by fluorescence based assay.

For a further test, the target named is T2, Estrogen receptor (Homo sapiens, UniProt P03372).
T2 sequence (P03372 whole entry): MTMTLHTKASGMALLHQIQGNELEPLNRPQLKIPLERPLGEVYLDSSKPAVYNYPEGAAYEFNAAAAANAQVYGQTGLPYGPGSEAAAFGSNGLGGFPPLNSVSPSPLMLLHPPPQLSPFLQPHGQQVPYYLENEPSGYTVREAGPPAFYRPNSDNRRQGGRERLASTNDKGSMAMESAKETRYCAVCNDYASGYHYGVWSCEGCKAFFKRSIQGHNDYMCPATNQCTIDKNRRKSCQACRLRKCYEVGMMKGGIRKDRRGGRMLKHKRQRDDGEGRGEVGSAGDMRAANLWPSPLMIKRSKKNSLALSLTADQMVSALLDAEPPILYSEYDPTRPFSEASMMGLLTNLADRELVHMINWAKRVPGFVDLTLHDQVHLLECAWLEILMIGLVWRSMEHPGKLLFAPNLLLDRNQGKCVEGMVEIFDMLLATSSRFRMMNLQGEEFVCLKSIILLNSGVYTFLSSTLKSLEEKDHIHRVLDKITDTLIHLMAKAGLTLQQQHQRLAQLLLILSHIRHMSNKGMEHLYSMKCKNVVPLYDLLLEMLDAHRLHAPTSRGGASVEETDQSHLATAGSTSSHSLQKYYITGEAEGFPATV
The experiment in a line: Inhibition of His-tagged human ERalpha pre-incubated for 15 mins before fluorescent ligand addition and measured after 1 hr by fluorescence polarization assay. For orientation: In fluorescence polarisation assays a small probe gives low polarisation when free and higher when bound to something large.

Test [2] concerns the target Mast/stem cell growth factor receptor Kit (Homo sapiens, UniProt P10721). The experiment in a line: Inhibition of recombinant c-Kit (unknown origin) incubated for 1 hr by ADP-Glo assay. (In general: ADP-Glo turns the ADP formed in a reaction into a luminescent signal.)

Mast/stem cell growth factor receptor Kit, sequence (P10721 whole entry): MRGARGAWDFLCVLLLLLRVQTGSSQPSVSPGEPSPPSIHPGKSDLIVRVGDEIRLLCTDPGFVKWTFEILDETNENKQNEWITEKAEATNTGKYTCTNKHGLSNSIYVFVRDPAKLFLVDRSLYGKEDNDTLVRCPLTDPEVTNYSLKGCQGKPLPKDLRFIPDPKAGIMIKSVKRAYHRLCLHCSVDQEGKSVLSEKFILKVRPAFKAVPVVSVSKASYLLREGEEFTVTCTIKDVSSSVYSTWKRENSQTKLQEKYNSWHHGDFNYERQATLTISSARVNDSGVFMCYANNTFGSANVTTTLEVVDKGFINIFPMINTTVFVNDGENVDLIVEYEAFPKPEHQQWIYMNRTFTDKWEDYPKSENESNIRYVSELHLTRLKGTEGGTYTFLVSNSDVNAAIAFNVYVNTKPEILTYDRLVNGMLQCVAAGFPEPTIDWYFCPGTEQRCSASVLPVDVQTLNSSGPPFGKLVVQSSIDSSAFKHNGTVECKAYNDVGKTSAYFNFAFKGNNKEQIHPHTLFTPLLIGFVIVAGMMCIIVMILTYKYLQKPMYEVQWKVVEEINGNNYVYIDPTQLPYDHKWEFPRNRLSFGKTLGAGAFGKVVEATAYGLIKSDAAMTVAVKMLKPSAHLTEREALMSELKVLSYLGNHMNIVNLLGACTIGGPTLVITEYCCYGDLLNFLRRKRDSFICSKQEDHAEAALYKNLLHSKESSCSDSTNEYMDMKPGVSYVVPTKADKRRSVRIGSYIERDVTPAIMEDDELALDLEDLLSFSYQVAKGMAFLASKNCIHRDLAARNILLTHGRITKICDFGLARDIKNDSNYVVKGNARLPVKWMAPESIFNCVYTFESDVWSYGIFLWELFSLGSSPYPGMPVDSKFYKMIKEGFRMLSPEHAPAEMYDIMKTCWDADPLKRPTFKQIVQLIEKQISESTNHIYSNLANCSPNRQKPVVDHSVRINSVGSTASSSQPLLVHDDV

`O=C(Nc1ccc(Sc2ccccc2Cl)cc1)C1CCN(C(=O)c2ccc(F)cc2)CC1`: the IC50 in test [1] stood at 1 nM.
At Estrogen receptor, `CN1c2ccccc2C2(C)CCCC3Cc4cc(Br)cc(Br)c4OC312` (stereo unspecified) returned a half-maximal inhibitory concentration (IC50) of 20 nM.
Turning to `CC(OC(=O)c1ccc2nc(N)sc2c1)C(=O)Nc1ccc(C(C)(C)C)cc1` (stereo unspecified), in test [2], the half-inhibitory concentration (IC50) was determined as 9 nM.
In turn, `Cc1ccccc1C(OC(c1ccccc1C)c1ccccc1C)c1ccccc1C` had an IC50 at Estrogen receptor of 8 nM.
For `O=C(NC1CCC2CCCC2C1)C1CCCN(S(=O)(=O)c2cccs2)C1` (stereo unspecified), the 50% inhibitory concentration (IC50) in test [1] stood at 2 nM.
With `CC(C)COC(=O)N1CCN(C(=O)C=CC(=O)Nc2ccc(Cl)cc2)CC1`, the 50% inhibitory concentration (IC50) in test [2] stood at 21 nM.

The IC50 is the point on the concentration scale where inhibition reaches its midpoint.
